Reference: patent US9688613B2 (Jiva Pharma, Inc., priority 2015, dated 2017)

Test system: GABA-A receptors
Test: Displacement of [3H] muscimol from GABA-A receptors
Format: binding
Procedure: Muscimol is the principal psychoactive constituent of Amanita muscaria and related species of mushroom.
These tests were performed using the procedure described by Tomasz Plech et. al., Studies on anticonvulsant activity of 4-alkyl-1,2,4-triazole-3-thiones and their effect on GABAergic system; European J. of Medicinal Chem. 2014, 86, 690-699.

| Structure (SMILES) | % of [3H]-MUSCIMOL inhibition (LOG OF MOLAR CONC. −4) | % of [3H]-MUSCIMOL inhibition (LOG OF MOLAR CONC. −5) |
| --- | --- | --- |
| CC/C=C\C/C=C\C/C=C\C/C=C\C/C=C\C/C=C\CCC(CN)CC(=O)O (centres unmarked) [Example 1, 3-Aminomethyl-tetracosa-6,9,12,15,18,21-hexaenoic Acid] | 10% | 0% |
| CC/C=C\C/C=C\C/C=C\C/C=C\C/C=C\CCCC(CN)CC(=O)O (centres unmarked) [Example 2, 3-Aminomethyl-docosa-7,10,13,16,19-pentaenoic Acid] | 15% | 10% |
| CC/C=C\C/C=C\C/C=C\CCCCCCCC(CN)CC(=O)O (centres unmarked) [Example 3, 3-Aminomethyl-eicosa-11,14,17-trienoic Acid] | 8% | 0% |
| CC(C)C[C@H](CN)CC(=O)O [Pregabalin, S-isobutylgaba, reference compound] | 12% | 0% |
